Assay results as given in patent US20250262223A1, “METHODS FOR THE TREATMENT OF BIOLOGICAL AGING” (BIOVIE INC., priority 2022, published 2025).

Legend:
[1] = cited from earlier work
[2] = Phase 3 neuropsychiatric inventory; type: in vivo, human; conditions: blinded Phase 3 data, NE3107 and placebo pooled
Protocol: Subjects were analyzed for neuropsychiatric inventory. […] An improvement in appetite was also correlated with decreased Cog12, CDR SB and ADCOMS, with increased Alzheimer's disease. A decrease in anxiety was correlated with an increase ADL and decreased CGIC. Sleep improvement was correlated with a decrease in CGIC and decreased in TNFα. The results are described in Table 8 and FIGS. 16A-16B.

[3] = test system: ERK- and NF-κB-stimulated inflammatory mediators, including TNF-α; conditions: without inhibiting their homeostatic functions; cited from earlier work
[4] = test system: extracellular signal-regulated kinase; conditions: cited from earlier work
CpGs (DNA methylation) = test: Illumina 850K array DNA methylation changes following 14 weeks of bezisterim treatment; type: in vivo, human; conditions: for decrease in DNAm: 14 weeks
Protocol: In this study, 23 mild cognitive impaired (“MCI”) and Alzheimer's disease (“AD”) subjects were enrolled based on Clinical Dementia Rating (“CDR”) from their Quick Dementia Rating System (“QDRS”) scale. Advanced MRI imaging (ASL, BOLD, MRS, task-based fMRI) was also performed as well as cognition and memory tests were performed (Cog12, MM SE, QDRS, MoCA). Biomarkers of the subjects were also taken (csf p-Tau, A beta, and plasma TNF) and episome analyses were performed. Finally, a biological clock analysis was performed (DNA methylation profiling).
Illumina® 850K array DNA methylation changes following 14 weeks of bezisterim treatment were sorted and the top 400 decreased CpGs (decreases >50%) were explored for correlations with changes in clinical results following treatment. Of these, 366 have CpG gene identifications.

[5] = Phase 3 imaging sub-study FDG-PET; type: in vivo, human; conditions: subjects with a baseline whole cortex suvr <1.29; blinded Phase 3 data, NE3107 and placebo pooled
Protocol: Subjects were analyzed using a fluorodeoxyglucose (FDG)-positron emission tomography (PET) imaging scans. FDG-PET standardized uptake value ratios (“suvr”) were increased in 14/24 subjects with a baseline whole cortex suvr <1.29. […] Cholesterol increases trended with increased Cingulate suvr. The results are described in Table 7 and FIG. 15.

Phase 3 adverse effects = type: in vivo
[6] = Phase 3 trial, metabolic changes and correlations; type: in vivo, human
Protocol: Subjects metabolic and correlation changes were analyzed. Many of the genes associated with LOAD (late onset Alzheimer's disease) are related to cholesterol metabolism, which is decreased in AD neuron membranes. Insulin and glycemic controls are known to be involved in neurodegeneration. […] Increased mean amplitude of glycemic excursion (MAGE from CGM) increased risk of Alzheimer's disease progression. Leptin is an anti-inflammatory, neuroprotective and is decreased in AD. […] The results are described in Tables 4 and 5.
FIGS. 17A-17C illustrates graphs representing increased fasting insulin and HOMA2-% B with decreased HOMA2-% S w/o hypoglycemia. Table 10 provides additional information regarding the fasting insulin and HOMA2-% B with decreased HOMA2-% S w/o hypoglycemia.

[7] = test system: p-IKK beta, p-ERK, p-P38 and p-JNK (Tau phosphorylation); test: in vitro samples: activation of inflammatory kinases and p-Tau; type: cell-based
Source text: Without wishing to be bound by theory, it is believed that 17α-ethynylandrost-5-ene-3β,7β,17β-triol binds to ERK 1 and ERK 2, which decreases inflammatory activation of p-IKK beta, p-JNK, p-ERK and p-P38, thereby decreasing serine IRS1 phosphorylation, restoring tyrosine IRS1 phosphorylation and insulin sensitivity.

[8] = Phase 3 imaging sub-study vMRI; type: in vivo, human; conditions: 23 subjects; blinded Phase 3 data, NE3107 and placebo pooled
Protocol: Subjects were analyzed using imaging sub-studies vMRI on 23 subjects. It was observed that the volume was increased in the hippocampus and amygdala. In addition, it was observed a decreased CGIC was correlated with decreased hippocampi volume and increased MCP-1 was correlated with increased whole cortex. The results are described in FIGS. 14A-14B and Table 6.

[9] = P < 0.0001, blinded Phase 3 data, NE3107 and placebo pooled
[10] = blinded Phase 3 data, NE3107 and placebo pooled

C#C[C@]1(O)CC[C@H]2[C@@H]3[C@@H](O)C=C4C[C@@H](O)CC[C@]4(C)[C@H]3CC[C@@]21C [NE3107, 17α-ethynylandrost-5-ene-3β,7β,17β-triol]
blood-brain permeability [1]: blood-brain permeable | neuropsychiatric inventory, overall improvement in sleep ([2]; p<0.0001): −1.0 | neuropsychiatric inventory, overall improvement in appetite ([2]; p<0.023): −1.0 | inhibition of inflammation-driven ERK- and NF-κB-stimulated inflammatory mediators, including TNF-α [3]: selectively inhibit | binding to extracellular signal-regulated kinase [4]: binds | DNA methylation decrease of the top 400 decreased CpGs (CpGs (DNA methylation); 14 weeks of treatment): > 50% | decrease in DNAm (CpGs (DNA methylation); HLA-L): 56% | decrease in DNAm (CpGs (DNA methylation); KCNQ1DN): 51% | decrease in DNAm (CpGs (DNA methylation); SLC26A1): 55% | subjects with increased FDG-PET standardized uptake value ratios (suvr) [5]: 14/24 | subjects discontinued due to a reported AE (Phase 3 adverse effects; 10 subjects of 439 enrolled, blinded, NE3107 and placebo pooled): 2.3% | serious AEs (Phase 3 adverse effects; 12, blinded, NE3107 and placebo pooled): 2.7% | related AEs (Phase 3 adverse effects; 43, blinded, NE3107 and placebo pooled): 9.8% | subjects who experienced 1 or more AEs (Phase 3 adverse effects; 156 of 439 subjects, blinded, NE3107 and placebo pooled): 35.5% | serious AEs that resulted in death (Phase 3 adverse effects; count, not known whether on IP or placebo): 1 | Hypoglycemia ([6]; Increased Fasting Insulin: No, blinded Phase 3 data): 2 | Hypoglycemia ([6]; Increased Fasting Insulin: Yes, blinded Phase 3 data): 0 | HOMA2-% B, Change from Baseline [6, 9]: +13.5%, * | HOMA2-% S, Change from Baseline [6, 9]: −21.2%, * | Insulin, Change from Baseline [6, 9]: +1.9 μlU/mL,* | Cholesterol, Change from Baseline [6, 10]: +3.0 mg/dL | Leptin, V10 median [6, 10]: 29.2 ng/mL | Leptin DNAm ([6]; in vivo): increase | MAGE, Change from Baseline ([6]; mean amplitude of glycemic excursion from CGM, blinded Phase 3 data, NE3107 and placebo pooled): -0.57 mg/dL | Hypoglycemia ([6]; with increased insulin and HOMA2-% B and decreased HOMA2% insulin sensitivity, blinded Phase 3 data): no cases of hypoglycemia | Akt inhibition of GSK 3beta [7]: increased Akt inhibition of GSK 3beta | activation of inflammatory p-IKK beta, p-ERK, p-P38 and p-JNK ([7]; in vitro samples): decreased activation | p-Tau ([7]; in vitro samples): decreased p-Tau | vMRI amygdala volume [8]: increased | vMRI hippocampus volume [8]: increased
